Measurements published in ChEMBL document CHEMBL1275576, “In vitro activity of tomopenem (CS-023/RO4908463) against anaerobic bacteria” (Antimicrob Agents Chemother, 2009).

Legend:
Type in all cases: functional
Porphyromonas uenonis = experiment: Antimicrobial activity against Porphyromonas uenonis by agar dilution method in presence of 5% laked sheep blood
Fusobacterium nucleatum = experiment: Antimicrobial activity against Fusobacterium nucleatum by agar dilution method in presence of 5% laked sheep blood
[1] = test system: Prevotella melaninogenica; experiment: Antimicrobial activity against Prevotella melaninogenica by agar dilution method in presence of 5% laked sheep blood
[2] = test system: Bacteroides thetaiotaomicron; experiment: Antimicrobial activity against Bacteroides thetaiotaomicron by agar dilution method in presence of 5% laked sheep blood
Fusobacterium mortiferum = experiment: Antimicrobial activity against Fusobacterium mortiferum by agar dilution method in presence of 5% laked sheep blood
[3] = test system: Porphyromonas asaccharolytica; experiment: Antimicrobial activity against Porphyromonas asaccharolyticus by agar dilution method in presence of 5% laked sheep blood
Porphyromonas gingivalis = experiment: Antimicrobial activity against Porphyromonas gingivalis by agar dilution method in presence of 5% laked sheep blood

Row | SMILES | MIC50 (Porphyromonas uenonis) [mg/L] | MIC90 (Porphyromonas uenonis) [mg/L] | MIC50 (Fusobacterium nucleatum) [mg/L] | MIC90 (Fusobacterium nucleatum) [mg/L] | MIC50 [1] [mg/L] | MIC90 [1] [mg/L] | MIC50 [2] [mg/L] | MIC90 [2] [mg/L] | MIC50 (Fusobacterium mortiferum) [mg/L] | MIC90 (Fusobacterium mortiferum) [mg/L] | MIC50 [3] [mg/L] | MIC90 [3] [mg/L] | MIC50 (Porphyromonas gingivalis) [mg/L] | MIC90 (Porphyromonas gingivalis) [mg/L]
1 | CC(=N)N1CC[C@H](SC2=C(C(=O)O)N3C(=O)[C@H]([C@@H](C)O)[C@H]3C2)C1 | 0.06 | 0.06 | 0.125 | 2 | 0.125 | 0.25 | 0.5 | 2 | 0.125 | 2 | 0.06 | 0.06 | 0.06 | 0.06
2 | C[C@@H](O)[C@H]1C(=O)N2C(C(=O)O)=C(S[C@@H]3CN[C@H](CNS(N)(=O)=O)C3)[C@H](C)[C@H]12 [DORIPENEM] | 0.03 | 0.06 | 0.03 | 0.25 | 0.06 | 0.125 | 0.5 | 1 | 0.03 | 0.25 | 0.03 | 0.06 | 0.03 | 0.06
3 | C[C@@H](O)[C@H]1C(=O)N2C(C(=O)O)=C(S[C@@H]3CN[C@H](C(=O)N(C)C)C3)[C@H](C)[C@H]12 [MEROPENEM] | ≤ 0.015 | 0.03 | 0.03 | 0.125 | 0.125 | 0.25 | 0.5 | 2 | 0.03 | 0.125 | ≤ 0.015 | 0.03 | ≤ 0.015 | 0.03
4 | Cc1ncc([N+](=O)[O-])n1CCO [METRONIDAZOLE] | 0.06 | 0.25 | ≤ 0.015 | 0.5 | 1 | 2 | 0.5 | 2 | ≤ 0.015 | 0.5 | 0.06 | 0.25 | 0.06 | 0.25
5 | C[C@@H](O)[C@H]1C(=O)N2C(C(=O)O)=C(S[C@H]3C[C@@H](C(=O)N4CC[C@H](NC(=O)CNC(=N)N)C4)N(C)C3)[C@H](C)[C@H]12 [TOMOPENEM] | 0.03 | 0.06 | ≤ 0.015 | 0.5 | 0.125 | 0.5 | 0.5 | 2 | ≤ 0.015 | 0.5 | 0.03 | 0.06 | 0.03 | 0.06
